Results taken from publication PMC11530827, “Characterization of a cytochrome P450 that catalyzes the O-demethylation of lignin-derived benzoates” (The Journal of Biological Chemistry, 2024).
Where two headings read alike, the source gives them in different places.

T1: PbdA (Rhodococcus jostii, UniProt Q0SCI3)
T1 sequence (Q0SCI3 1-400): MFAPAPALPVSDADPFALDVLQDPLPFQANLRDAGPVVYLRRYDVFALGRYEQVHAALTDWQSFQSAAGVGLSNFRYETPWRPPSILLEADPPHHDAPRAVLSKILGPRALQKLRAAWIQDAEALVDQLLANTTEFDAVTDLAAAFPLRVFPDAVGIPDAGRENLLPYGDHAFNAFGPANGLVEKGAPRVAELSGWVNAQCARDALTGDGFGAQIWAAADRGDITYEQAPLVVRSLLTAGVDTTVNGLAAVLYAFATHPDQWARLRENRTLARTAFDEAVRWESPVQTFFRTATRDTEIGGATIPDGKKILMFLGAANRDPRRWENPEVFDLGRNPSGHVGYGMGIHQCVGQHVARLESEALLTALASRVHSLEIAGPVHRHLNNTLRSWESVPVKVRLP

B1: PbdA (Rhodococcus jostii RHA1) (protein)
chain: T1 sequence (Q0SCI3 1-400)

Experiments:
[1] = target: T2, PbdA S87A/S237A (Rhodococcus jostii, UniProt Q0SCI3, S235A/S85A); assay: Activity and coupling assay of PbdA S87A/S237A variant with PbdB; format: biochemical, Rhodococcus jostii RHA1; conditions: for NADH depletion rate: air-saturated MOPS (I = 0.1 M), pH 7.2, 25 °C
T2 construct: hexaHis (N, cleaved yes); made in house; host or cells: PbdA variant: E. coli BL-21 λ (DE3); PbdB: Rhodococcus jostii RHA1
T2 sequence (Q0SCI3 entry or part of it S85A/S235A): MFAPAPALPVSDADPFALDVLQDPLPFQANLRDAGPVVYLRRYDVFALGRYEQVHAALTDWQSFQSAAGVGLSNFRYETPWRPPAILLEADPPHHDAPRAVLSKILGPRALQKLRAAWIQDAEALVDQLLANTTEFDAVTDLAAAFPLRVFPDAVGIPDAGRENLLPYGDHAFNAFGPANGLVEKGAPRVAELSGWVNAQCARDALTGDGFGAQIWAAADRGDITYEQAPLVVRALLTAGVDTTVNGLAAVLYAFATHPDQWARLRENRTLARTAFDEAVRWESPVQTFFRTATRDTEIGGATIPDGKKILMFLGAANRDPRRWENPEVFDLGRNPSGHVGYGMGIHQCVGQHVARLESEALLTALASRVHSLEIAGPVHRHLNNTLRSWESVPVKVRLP
Experimental: (§1) For activity measurements 0.25 to 1 μM of PbdA and PbdB were combined in a 200 μl cuvette in 20 mM Mops, pH 7.2 with substrate diluted in the same buffer. NADH was added to 350 μM to initiate the reaction. For HPLC analysis, enzymatic reactions were acidified by adding acetic acid to 10% final concentration, centrifuged (16,000×g for 10 min), and filtered through a 0.2 μm polytetrafluoroethylene membrane. Samples were run over a Luna 5 μm C18(2) 100 Å 150 × 3 mm column (Phenomenex) at 0.7 ml min^−1 by a Waters 2695 separation HPLC module. Samples were eluted with a 16.8 ml linear gradient from 1% methanol plus 0.1% formic acid in water to 100% methanol plus 0.1% formic acid and monitored at 280 nm with a Waters 2996 photodiode array detector. Concentrations were determined by interpolation on a standard curve of 0 to 1 mM of authentic standard. NADH concentration was measured by absorbance at 340 nm, ε = 6.22 mM^-1 cm^-1. Coupling was calculated from the ratio of rate of aromatic turnover, as determined by HPLC, and the rate of NADH oxidation, determined spectroscopically. Buffer ionic strength was adjusted by addition of NaCl, as appropriate. Apparent steady-state kinetic parameters were calculated by fitting Michaelis–Menten equations to initial velocity of reactions at various concentrations of aromatic substrate (LEONORA).
(§2) ^aExperiments were performed using air-saturated MOPS (I = 0.1 M), pH 7.2, at 25 °C. The rate of aromatic substrate turnover was based on the appearance of O-demethylated product. Standard deviation is shown in parentheses.

[2] = target: T1, PbdA; assay: Substrate binding to PbdA (WT) by type I spectral shift titration; set-up: hexaHis (N, cleaved yes); made in house; host or cells: PbdA: E. coli BL-21 λ (DE3); PbdB: Rhodococcus jostii RHA1; conditions: for %High-spin (percent of heme iron in high-spin state): on substrate binding
Experimental: The affinity of PbdA for various LDACs was measured by the type I spectral shift upon titration of aromatic compound (Fig. 2). This shift occurs as the compound displaces a water coordinated to the heme iron, initiating a spin state transition in the latter from a low spin, hexacoordinate, to a high spin, pentacoordinate form.
Figure 2 Substrate binding of PbdA. A, difference spectra of PbdA titrated with 1 to 50 μM p-MBA from the substrate-free enzyme. Darker colors indicate higher concentration of p-MBA. Spectra were collected after each addition of substrate to 1 μM enzyme in 20 mM Mops, I = 0.1 M, pH 7.2. B, binding isotherm of PbdA and p-MBA. The fitted curve represents a simple hyperbola. p-MBA, para-methoxybenzoate.
(§3) UV-visible spectroscopy was conducted with a Cary 60 spectrophotometer equipped with a thermostatted cuvette holder at 25 °C. Scans of purified proteins diluted in 20 mM Mops, I = 0.1 M, pH 7.2 were taken between 250 and 700 nm. Heme concentration was calculated as described previously ([35]). Carbon monoxide binding was determined by reduction of PbdA diluted in 20 mM Mops, I = 0.1 M, pH 7.2 as above by a few grains of […]. CO was bubbled into the reduced enzyme for approximately 60 s at a rate of one bubble per second. Dissociation constants (Kd) were determined by titration of ligands diluted into enzyme buffer from 1 M stocks prepared in dimethyl sulfoxide into PbdA diluted in 20 mM Mops, I = 0.1 M, pH 7.2. Spectra take upon addition of substrate were subtracted from the spectrum of the enzyme, and peak-to-trough distance was plotted by ligand concentration. Kd values were determined by fitting a hyperbolic equation to the data as described previously ([23], [36]). The proportion of high-spin heme iron was determined using the approximate peak-to-trough extinction coefficient (ε ≈ 100 mM^−1 cm^−1) ([36]).

[3] = target: T3, PbdA R84M (Rhodococcus jostii, UniProt Q0SCI3, R82M); assay: Activity and coupling assay of PbdA R84M variant with PbdB; format: biochemical, Rhodococcus jostii RHA1; conditions: air-saturated MOPS (I = 0.1 M), pH 7.2, 25 °C
T3 construct: hexaHis (N, cleaved yes); made in house; host or cells: PbdA variant: E. coli BL-21 λ (DE3); PbdB: Rhodococcus jostii RHA1
T3 sequence (Q0SCI3 entry or part of it R82M): as the sequence (Q0SCI3 entry or part of it S85A/S235A) above, with R82M, A85S, A235S counted along it
Experimental: as §1, §2

[4] = tested on: CYP199A4; set-up: method as in PMID 26969786; conditions: cited from earlier work
[5] = target: T4, PbdA S237A (Rhodococcus jostii, UniProt Q0SCI3, S235A); assay: Substrate binding to PbdA S237A variant by spectral titration; set-up: species or system Rhodococcus jostii RHA1
T4 construct: hexaHis (N, cleaved yes); made in house; host or cells: PbdA variant: E. coli BL-21 λ (DE3); PbdB: Rhodococcus jostii RHA1
T4 sequence (Q0SCI3 entry or part of it S235A): as the sequence (Q0SCI3 entry or part of it S85A/S235A) above, with A85S counted along it
Experimental: as §3

[6] = target: T4, PbdA S237A; assay: Activity and coupling assay of PbdA S237A variant with PbdB; format: biochemical, Rhodococcus jostii RHA1; conditions: for NADH depletion rate: air-saturated MOPS (I = 0.1 M), pH 7.2, 25 °C
Experimental: as §1, §2

[7] = target: T5, PbdA S87A (Rhodococcus jostii, UniProt Q0SCI3, S85A); assay: Substrate binding to PbdA S87A variant by spectral titration; set-up: species or system Rhodococcus jostii RHA1
T5 construct: hexaHis (N, cleaved yes); made in house; host or cells: PbdA variant: E. coli BL-21 λ (DE3); PbdB: Rhodococcus jostii RHA1
T5 sequence (Q0SCI3 entry or part of it S85A): as the sequence (Q0SCI3 entry or part of it S85A/S235A) above, with A235S counted along it
Experimental: as §3

[8] = target: T2, PbdA S87A/S237A; assay: Substrate binding to PbdA S87A/S237A variant by spectral titration; set-up: species or system Rhodococcus jostii RHA1
Experimental: as §3

[9] = target: T5, PbdA S87A; assay: Activity and coupling assay of PbdA S87A variant with PbdB; format: biochemical, Rhodococcus jostii RHA1; conditions: for NADH depletion rate: air-saturated MOPS (I = 0.1 M), pH 7.2, 25 °C
Experimental: as §1, §2

[10] = target: T1, PbdA; conditions: WT PbdAB, SD in parentheses; for NADH depletion rate: air-saturated MOPS (I = 0.1 M), pH 7.2, 25 °C; for Rate of Aromatic turnover: appearance of O-demethylated product (disappearance of p-EB)
Experimental: We then measured coupling under optimum conditions for other substrates. […] Finally, we measured the apparent steady-state kinetic parameters of the PbdA reaction under conditions of maximal coupling (Fig. S4).
as §1

[11] = target: T3, PbdA R84M; assay: Substrate binding to PbdA R84M variant by spectral titration; set-up: species or system Rhodococcus jostii RHA1
Experimental: as §3

[12] = substrate: COc1ccc(C(=O)O)cc1O; assay: purified protein, by the assay type; conditions: other: WT PbdA with PbdB, air-saturated Mops (I = 0.1 M), pH 7.2, 25 °C, SD in parentheses
[13] = appearance of O-demethylated product

Row | Molecule | NADH depletion rate [1] | %High-spin (percent of heme iron in high-spin state) ([2]; WT PbdA) [%] | NADH depletion rate [3] | O-demethylation rate relative to that of p-MBA [4] [%] | Kd [5] [µM] | NADH depletion rate [6] | Kd [7] [µM] | Kd [8] [µM] | NADH depletion rate [9] | NADH depletion rate [10] | Rate of Aromatic turnover [10] | Kd [11] [µM] | further results
1 | COc1ccc(C(C)=O)cc1 [p-MAP, p-methoxyacetophenone] | 160 (30) U mg P450^-1 | 2.8 | 170 (30) U mg P450^-1 | 0.25 | 12 | 220 (6) U mg P450^-1 | 14 | 8 | 265 (7) U mg P450^-1 | 117 (6) U mg P450^-1 | did not detectably O-demethylate | 8 | Kd ([2]; WT PbdA, 20 mM Mops, I = 0.1 M, pH 7.2, 25 °C, SD in parentheses, read-out: Kd): 37 µM
2 | COc1ccc(C=O)cc1 [p-MBAL, p-methoxybenzaldehyde] | 200 (4) U mg P450^-1 | 7.9 | 170 (10) U mg P450^-1 | 0.1 | 12 | 300 (50) U mg P450^-1 | 16 | 8 | 290 (20) U mg P450^-1 | 140 (30) U mg P450^-1 | did not detectably O-demethylate | 7 | Coupling [1]: 90 (20) %; Specific activity ([1]; O-demethylation): 180 (20) U μg P450^-1; Rate of Aromatic turnover [1, 13]: 180 (40) U mg P450^-1; Kd [2]: 11 µM; Coupling [6]: 9 (3) %; Specific activity ([6]; O-demethylation): 27 (2) U μg P450^-1; Rate of Aromatic turnover [6, 13]: 30 (3) U mg P450^-1; Coupling [9]: 27 (7) %; Specific activity ([9]; O-demethylation): 80 (30) U μg P450^-1; Rate of Aromatic turnover [9, 13]: 80 (30) U mg P450^-1
3 | B1 | – | – | – | – | – | – | – | – | – | – | – | – | Km [12]: 30 (10) μM; kcat [12]: 0.15 s⁻¹; kcat/Km [12]: 5000 M⁻¹ s⁻¹
